IC50 data for 17 compounds are collected here from patent US6380387B1, “4-Pyrimidinyl-n-acyl-l phenylalanines” (Hoffmann-La Roche Inc., priority 1999, dated 2002).

pIC50: −log10 of the molar value.

The target in this assay is T1, alpha4-beta7 (Homo sapiens, UniProt P13612+P26010).
T1 construct: Sufficient RPMI 8866 cells were removed from stock for assay; endogenous in cells; host or cells: RPMI 8866 cells
T1 sequence (P13612 34-1032): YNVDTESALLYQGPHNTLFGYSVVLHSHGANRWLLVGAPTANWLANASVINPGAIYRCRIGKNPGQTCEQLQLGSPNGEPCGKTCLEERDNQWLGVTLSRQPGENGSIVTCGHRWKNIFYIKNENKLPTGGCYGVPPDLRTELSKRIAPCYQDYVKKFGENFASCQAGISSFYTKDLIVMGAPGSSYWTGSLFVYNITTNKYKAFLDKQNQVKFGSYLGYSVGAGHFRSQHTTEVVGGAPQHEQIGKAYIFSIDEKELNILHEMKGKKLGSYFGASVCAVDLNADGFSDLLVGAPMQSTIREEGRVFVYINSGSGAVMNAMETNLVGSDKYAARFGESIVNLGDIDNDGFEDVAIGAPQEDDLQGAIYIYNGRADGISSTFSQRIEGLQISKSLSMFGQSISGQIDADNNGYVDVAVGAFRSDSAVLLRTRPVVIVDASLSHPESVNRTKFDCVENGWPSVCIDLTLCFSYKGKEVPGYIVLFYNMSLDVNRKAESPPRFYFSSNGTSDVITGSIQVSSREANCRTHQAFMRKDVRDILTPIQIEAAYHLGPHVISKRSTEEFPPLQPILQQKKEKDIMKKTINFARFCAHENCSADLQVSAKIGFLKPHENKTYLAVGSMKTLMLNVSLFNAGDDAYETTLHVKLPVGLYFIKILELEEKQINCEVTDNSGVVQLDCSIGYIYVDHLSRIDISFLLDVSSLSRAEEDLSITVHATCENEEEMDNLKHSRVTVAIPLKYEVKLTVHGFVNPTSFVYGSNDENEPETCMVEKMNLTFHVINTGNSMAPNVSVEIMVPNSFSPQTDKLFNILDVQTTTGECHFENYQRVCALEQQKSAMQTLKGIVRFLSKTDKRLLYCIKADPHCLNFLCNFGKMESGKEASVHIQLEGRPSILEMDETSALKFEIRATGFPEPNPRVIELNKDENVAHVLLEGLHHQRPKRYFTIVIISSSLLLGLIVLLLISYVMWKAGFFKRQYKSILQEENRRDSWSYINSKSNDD
T1 sequence (P26010 20-798): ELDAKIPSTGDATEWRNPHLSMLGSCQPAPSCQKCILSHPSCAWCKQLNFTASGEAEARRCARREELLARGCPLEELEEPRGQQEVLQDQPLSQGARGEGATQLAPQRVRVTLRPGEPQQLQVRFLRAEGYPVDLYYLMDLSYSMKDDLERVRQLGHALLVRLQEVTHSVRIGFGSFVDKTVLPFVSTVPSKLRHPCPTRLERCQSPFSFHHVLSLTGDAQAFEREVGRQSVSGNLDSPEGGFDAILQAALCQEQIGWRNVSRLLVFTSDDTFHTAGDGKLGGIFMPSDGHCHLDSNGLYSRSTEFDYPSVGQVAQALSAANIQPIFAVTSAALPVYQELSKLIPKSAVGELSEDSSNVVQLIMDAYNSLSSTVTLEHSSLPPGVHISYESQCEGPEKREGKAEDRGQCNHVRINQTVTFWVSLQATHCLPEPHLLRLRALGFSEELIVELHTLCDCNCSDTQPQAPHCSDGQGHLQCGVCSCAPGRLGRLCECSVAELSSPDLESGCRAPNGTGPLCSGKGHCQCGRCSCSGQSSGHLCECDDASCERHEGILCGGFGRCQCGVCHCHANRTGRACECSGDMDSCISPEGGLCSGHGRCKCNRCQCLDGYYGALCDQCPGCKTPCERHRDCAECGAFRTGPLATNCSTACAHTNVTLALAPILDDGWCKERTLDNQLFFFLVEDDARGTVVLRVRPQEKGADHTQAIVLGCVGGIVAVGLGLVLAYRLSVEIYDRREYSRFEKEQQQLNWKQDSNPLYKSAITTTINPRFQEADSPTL
Nature of the assay: Alpha4-Beta7 Assay (MadCAM/RPMI 8866 cell adhesion). The assay is classed as cell-based. The following applies: calcein labeled RPMI 8866 cells adhering to immobilized MadCAM. On the procedure:
Alpha4-Beta7 Assay Protocol
Two weeks to one day prior to the assay, Nunc high-binding F96 Maxisorp immuno plates, #442404 or #439454, were coated with 25 ng/well (0.25 μg/ml) MadCAM in a volume of 100 μl/well. The plates were covered with sealer and wrapped in saran wrap followed by incubation in the refrigerator for at least 24 hours. The coating buffer employed was: 10 mM carbonate/bicarbonate buffer made up from: 0.8 g/L sodium carbonate and 1.55 g/L sodium bicarbonate adjusted to pH 9.6 with 1 N HCl. Assay buffers consisted of the following:
Plates were washed 2× with wash buffer and then blocked at room temperature for at least 1 hour with Blocking Buffer. Sealed plates were sometimes blocked overnight in the refrigerator. Plates were then washed with PBS and hand blotted dry. Remaining liquid was aspirated from the wells.
Sufficient RPMI 8866 cells were removed from stock for assay (2×10^6 cells/ml×10 ml/plate×number of plates) and placed in a centrifuge tube. The tubes were filled to volume with PBS and were spun at 200×G for 8 minutes. The buffer was poured off and the cells were resuspended to 10×10^6/ml in PBS and a stock solution of calcein in DMSO (5mg/mL) was added at 51 μl/ml of cell suspension. The suspension was incubated for 30 minutes at 37° C. in dark. The cells were then washed with PBS. The PBS was poured off and the cells resuspended in cell buffer at a concentration of 2×10^6 cells/mL for plating in the assay.
Stock solution of test compounds at 25× first dilution desired in 100% DMSO were prepared. First dilutions for the standard, as well as test compounds, were 1:25 into straight Binding Buffer, while the remaining serial dilutions were into Dilution Buffer (Binding Buffer/4% DMSO). Stock concentrations and dilutions of compounds for screening were determined by anticipated activity.
For the assay, 129 μl Binding Buffer was plated into first row of wells and 100 μl Dilution Buffer was plated into remaining wells. A 5.44 μl aliquot of each compound was pipetted into appropriate, labeled wells, in triplicate. The compounds were next diluted down the plate (34 μl+100 μl=>4-fold dilution). For controls, 100 μl of Dilution Buffer 100 μl Cell Buffer were plated into the nonspecific background wells (no cells, no compound) and 100 μl Dilution Buffer+100 μl cells were plated into the total binding wells (no compound=100% binding). Labeled cells at 2×10^6 cells/ml, 100 μl/well (=2×10^5 cells/well) were added to each well containing compound. The plates were sealed and incubated in the dark for 45 minutes at room temperature. Following incubation, unbound cells were removed by adding 150 μl PBS/well. The plates were inverted, blotted onto paper towels and washed by gently adding 200 μl PBS to wells and blotting again. Remaining buffer was carefully aspirated from the wells. A final 100 μl PBS was added to each well.
The plates were then read for fluorescence intensity on a Cytofluor 2300 (Millipore) fluorecence measurement system (excitation=485 nm, emission=530 nm). IC50s of each compound were determined by linear regression analysis.

For `Cc1c(-c2ccc(C[C@H](NC(=O)c3c(Cl)cccc3Cl)C(=O)O)cc2)c(=O)n(C)c(=O)n1C` [Example 6, N-[(2,6-dichlorophenyl)carbonyl]-4-(1,3,6-trimethyl-2,4-dioxo-5-pyrimidinyl)-L-phenylalanine], the pIC50 – broadly, −log10 of the IC50, conventionally taken in molar units – was over 7.00.
As for `COCCC1(C(=O)N[C@@H](Cc2ccc(-c3c(C)n(C)c(=O)n(C)c3=O)cc2)C(=O)O)CCCC1` [Example 7, N-[[1-(2-methoxyethyl)cyclopentyl]carbonyl]-4-(1,3,6-trimethyl-2,4-dioxo-5-pyrimidinyl)-L-phenylalanine], the pIC50 was over 7.00.
In the case of `Cc1cccc(Br)c1C(=O)N[C@@H](Cc1ccc(-c2c(C)n(C)c(=O)n(C)c2=O)cc1)C(=O)O` [Example 8, N-[(2-bromo-6-methylphenyl)carbonyl]-4-(1,3,6-trimethyl-2,4-dioxo-5-pyrimidinyl)-L-phenylalanine] it was over 7.00.
In the case of `Cc1cccc(Cl)c1C(=O)N[C@@H](Cc1ccc(-c2c(C)n(C)c(=O)n(C)c2=O)cc1)C(=O)O` [Example 9, N-[(2-chloro-6-methylphenyl)carbonyl]-4-(1,3,6-trimethyl-2,4-dioxo-5-pyrimidinyl)-L-phenylalanine] it was over 7.00.
In the case of `CCc1cccc(C)c1C(=O)N[C@@H](Cc1ccc(-c2c(C)n(C)c(=O)n(C)c2=O)cc1)C(=O)O` [Example 10, N-[(2-ethyl-6-methylphenyl)carbonyl]-4-(1,3,6-trimethyl-2,4-dioxo-5-pyrimidinyl)-L-phenylalanine] it was over 5.00; in that of `Cc1cccc(C(C)C)c1C(=O)N[C@@H](Cc1ccc(-c2c(C)n(C)c(=O)n(C)c2=O)cc1)C(=O)O` [Example 11, N-[[2-(2-methylethyl)-6-methylphenyl]carbonyl]-4-(1,3,6-trimethyl-2,4-dioxo-5-pyrimidinyl)-L-phenylalanine], over 5.30.
Turning to `Cc1c(-c2ccc(C[C@H](NC(=O)c3c(F)cccc3F)C(=O)O)cc2)c(=O)n(C)c(=O)n1C` [Example 12, N-[(2,6-difluorophenyl)carbonyl]-4-(1,3,6-trimethyl-2,4-dioxo-5-pyrimidinyl)-L-phenylalanine], the pIC50 is over 7.00.
In the case of `Cc1c(-c2ccc(C[C@H](NC(=O)c3c(F)cccc3C(F)(F)F)C(=O)O)cc2)c(=O)n(C)c(=O)n1C` [Example 13, N-[(2-fluoro-6-(trifluoromethyl)phenyl)carbonyl]-4-(1,3,6-trimethyl-2,4-dioxo-5-pyrimidinyl)-L-phenylalanine] it was over 5.00; in that of `Cc1c(-c2ccc(C[C@H](NC(=O)c3c(C(C)C)cccc3C(C)C)C(=O)O)cc2)c(=O)n(C)c(=O)n1C` [Example 14, N-[[2,6-di-(2-methylethyl)phenyl]carbonyl]-4-(1,3,6-trimethyl-2,4-dioxo-5-pyrimidinyl)-L-phenylalanine], over 5.30.
In the case of `CCc1cccc(Cl)c1C(=O)N[C@@H](Cc1ccc(-c2c(C)n(C)c(=O)n(C)c2=O)cc1)C(=O)O` [Example 15, N-[(2-chloro-6-ethylphenyl)carbonyl]-4-(1,3,6-trimethyl-2,4-dioxo-5-pyrimidinyl)-L-phenylalanine] it was over 5.00; in that of `CCCc1cccc(Cl)c1C(=O)N[C@@H](Cc1ccc(-c2c(C)n(C)c(=O)n(C)c2=O)cc1)C(=O)O` [Example 16, N-[(2-chloro-6-propylphenyl)carbonyl]-4-(1,3,6-trimethyl-2,4-dioxo-5-pyrimidinyl)-L-phenylalanine], over 5.00.
In the case of `CCn1c(C)c(-c2ccc(C[C@H](NC(=O)c3c(Cl)cccc3Cl)C(=O)O)cc2)c(=O)n(CC)c1=O` [Example 18, N-[(2,6-dichlorophenyl)carbonyl]-4-(1,3-diethyl-6-methyl-2,4-dioxo-5-pyrimidinyl)-L-phenylalanine] it was over 7.00.
As to `CCn1c(C)c(-c2ccc(C[C@H](NC(=O)c3c(C)cccc3Cl)C(=O)O)cc2)c(=O)n(CC)c1=O` [Example 19, N-[(2-chloro-6-methylphenyl)carbonyl]-4-(1,3-diethyl-6-methyl-2,4-dioxo-5-pyrimidinyl)-L-phenylalanine], the pIC50 was over 5.00.
In the case of `CCn1c(C)c(-c2ccc(C[C@H](NC(=O)C3(CCOC)CCCC3)C(=O)O)cc2)c(=O)n(CC)c1=O` [Example 20, 4-(1,3-diethyl-6-methyl-2,4-dioxo-5-pyrimidinyl)-N-[[1-(2-methoxyethyl)cyclopentyl]carbonyl]-L-phenylalanine] it was over 5.00.
In the case of `Cn1c(C(F)(F)F)c(-c2ccc(C[C@H](NC(=O)c3c(Cl)cccc3Cl)C(=O)O)cc2)c(=O)n(C)c1=O` [Example 21, N-[1-(2,6-dichlorophenyl)carbonyl]-4-(1,3-dimethyl-2,4-dioxo-6-(trifluoromethyl)-5-pyrimidinyl)-L-phenylalanine] it was over 5.00; in that of `Cc1cccc(Cl)c1C(=O)N[C@@H](Cc1ccc(-c2c(C(F)(F)F)n(C)c(=O)n(C)c2=O)cc1)C(=O)O` [Example 22, N-[(2-chloro-6-methylphenyl)carbonyl]-4-[1,3-dimethyl-2,4-dioxo-6-(trifluoromethyl)-5-pyrimidinyl]-L-phenylalanine], over 5.00.
As to `Cn1c(C(F)(F)F)c(-c2ccc(C[C@H](NC(=O)c3c(F)cccc3C(F)(F)F)C(=O)O)cc2)c(=O)n(C)c1=O` [Example 23, N-[[2-fluoro-6-(trifluoromethyl)phenyl]carbonyl]-4-(1,3-dimethyl-2,4-dioxo-6-(trifluoromethyl)-5-pyrimidinyl)-L-phenylalanine], the pIC50 is over 5.00.
